Earlier results in US9371350B2, “Trehalose derivatives and pharmaceutical compositions for treating neurodegenerative diseases” (POSTECH ACADEMY-INDUSTRY FOUNDATION, priority 2008, dated 2016).

Key:
[1] = background, literature report
[2] = tested on: polyglutamine-induced aggregate formation; settings: in vivo mouse model, literature report

Compound	passage through the BBB to the brain [1]	inhibition of polyglutamine-induced aggregate formation [2]
OC[C@H]1O[C@H](O[C@H]2O[C@H](CO)[C@@H](O)[C@H](O)[C@H]2O)[C@H](O)[C@@H](O)[C@@H]1O [trehalose]	cannot pass through the BBB	efficiently inhibit
O[C@H]1[C@H](O)[C@@H](O)[C@H](O)[C@@H](O)[C@H]1O [inositol]	difficulty in passing through the blood-brain barrier	
